For one data set, the target named is T1, MMP-1 (Homo sapiens, UniProt P03956).
T1 construct: human recombinant fibroblast collagenase (truncated, mw=18,828)
T1 sequence (P03956 100-269 limits assumed): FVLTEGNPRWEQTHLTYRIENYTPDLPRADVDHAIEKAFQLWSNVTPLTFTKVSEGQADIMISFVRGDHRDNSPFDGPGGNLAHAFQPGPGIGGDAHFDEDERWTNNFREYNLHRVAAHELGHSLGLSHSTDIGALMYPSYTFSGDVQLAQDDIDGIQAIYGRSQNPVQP
Kind of data set: In vitro collagenase assay (fluorogenic peptide substrate). Format: biochemical. The note with it: human recombinant fibroblast collagenase. From the text:
In Vitro Collagenase Assay
This assay was based on the cleavage of a peptide substrate ((Dnp-Pro-Cha-Gly-Cys(Me)-His-Ala-Lys(NMa)-NH2), available from Peptide International, Inc.) by collagenase releasing the fluorescent NMa group which was quantitated on the fluorometer as disclosed in Bickett et al., “A High Throughput Fluorogenic Substrate for Interstitial Collagenase (MMP-1) and Gelatinase (MMP-9)”, Anal. Biochem., 212:58-64, (1993). Dnp quenches the NMa fluorescence in the intact substrate.
The assay was run in HCBC assay buffer (50 mM HEPES, pH 7.0, 5 mM Ca^+2, 0.02% Brij, 0.5% Cysteine), with human recombinant fibroblast collagenase (truncated, mw=18,828, from Wyeth-Ayerst Research, Radnor, Pa.). The substrate was dissolved in methanol and stored frozen in 1 mM aliquots. Collagenase was stored frozen in buffer in 25 μM aliquots. In conducting the assay, the substrate was dissolved in HCBC buffer to a final concentration of 10 μM and collagenase to a final concentration of 5 nM. The compounds being examined were dissolved in methanol, DMSO, or HCBC. The methanol and DMSO were diluted in HCBC to <1.0%. The compounds were added to a 96 well plate containing enzyme and the reaction was started by the addition of substrate.
The reaction was read (excitation 340 nm, emission 444 nm) for 10 min. and the increase in fluorescence over time was plotted as a linear line. The slope of the line was calculated representing the reaction rate. The linearity of the reaction rate was confirmed (r^2>0.85). The mean (x±sem) of the control rate was calculated and compared for statistical significance (p<0.05) with drug-treated rates using Dunnett's multiple comparison test.

The next data set has as its target T2, MMP-9 (Homo sapiens, UniProt P14780).
T2 construct: human neutrophil gelatinase B; from tissue; host or cells: human neutrophils
Kind of data set: In vitro gelatinase assay (thiopeptide substrate, DTNB). Format: biochemical. The note with it: human neutrophil gelatinase B. The protocol:
In Vitro Gelatinase Assay
The assay is based on the cleavage of the thiopeptide substrate ((Ac-Pro-Leu-Gly(2-mercapto-4-methyl-pentanoyl)-Leu-Gly-OEt), available from Bachem Bioscience) by the enzyme gelatinase, releasing the substrate product which reacts calorimetrically with DTNB ((5,5′-dithio-bis(2-nitro-benzoic acid)). This assay is disclosed in Weingarten et al., “Spectrophotometric Assay for Vertebrate Collegenase”, Anal. Biochem., 147:437-440, (1985). The enzyme activity is measured by the rate of the color increase.
The thiopeptide substrate was made up fresh as a 20 mM stock in 100% DMSO and the DTNB was dissolved in 100% DMSO as a 100 mM stock and stored in the dark at room temperature. The substrate and the DTNB were diluted together to 1 mM with substrate buffer (50 mM HEPES, pH 7.5, 5 mM CaCl2) before use. The stock of human neutrophil gelatinase B was diluted with assay buffer (50 mM HEPES, pH 7.5, 5 mM CaCl2, 0.02% Brij) to a final concentration of 0.15 nM.
The assay buffer, enzyme, DTNB/substrate (500 μM final concentration) and vehicle or inhibitor were added to a 96 well plate (total reaction volume of 200 μl) and the increase in color was monitored spectrophotometrically for 5 minutes at 405 nm on a plate reader.
The increase in OD405 was plotted and the slope of the line was calculated. The slope represents the reaction rate. The linearity of the reaction rate was confirmed (r^2>0.85) and the mean (x±sem) of the control rate was calculated and compared for statistical significance (p<0.05) with drug-treated rates using Dunnett's multiple comparison test.

Another data set deals with MMP-13 (Homo sapiens, UniProt P45452). The experiment in a line: MMP-13 inhibition. Format: biochemical.
For a further data set, the target named is T3, TACE (Homo sapiens, UniProt P78536).
T3 construct: purchased Immunex
T3 sequence (P78536 215-824): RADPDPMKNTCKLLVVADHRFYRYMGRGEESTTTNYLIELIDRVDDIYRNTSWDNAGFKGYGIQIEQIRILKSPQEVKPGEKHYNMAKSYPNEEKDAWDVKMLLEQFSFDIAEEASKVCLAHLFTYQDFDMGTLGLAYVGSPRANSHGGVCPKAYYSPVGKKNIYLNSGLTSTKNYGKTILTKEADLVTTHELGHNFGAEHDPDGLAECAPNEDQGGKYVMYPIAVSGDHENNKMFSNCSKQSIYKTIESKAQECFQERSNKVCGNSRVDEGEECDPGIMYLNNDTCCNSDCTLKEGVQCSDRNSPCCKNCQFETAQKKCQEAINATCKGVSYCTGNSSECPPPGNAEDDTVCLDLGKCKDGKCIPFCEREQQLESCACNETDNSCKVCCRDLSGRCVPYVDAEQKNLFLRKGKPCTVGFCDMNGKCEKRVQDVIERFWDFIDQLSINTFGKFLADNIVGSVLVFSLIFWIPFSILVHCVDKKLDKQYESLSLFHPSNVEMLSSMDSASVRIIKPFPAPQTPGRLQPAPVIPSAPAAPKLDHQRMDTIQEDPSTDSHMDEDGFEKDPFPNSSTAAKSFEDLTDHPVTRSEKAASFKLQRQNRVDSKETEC
Kind of data set: Procedure for measuring TACE inhibition (fluorescent peptidyl substrate). It is filed as biochemical. The protocol:
Procedure for Measuring TACE Inhibition
The plates were incubated for 10 minutes at room temperature. The reaction was initiated by addition of a fluorescent peptidyl substrate (final concentration 100 μM) to each well with shaking on a shaker for 5 sec.
The reaction was read (excitation 340 nm, emission 420 nm) for 10 min. and the increase in fluorescence over time was plotted as a linear line. The slope of the line was calculated and this represents the reaction rate. […] The mean (x±sem) of the control rate was calculated and compared for statistical significance (p<0.05) with drug-treated rates using Dunnett's multiple comparison test.

Each structure is given as a SMILES string. Where two headings read alike, the source gives them in different places.

T2 sequence (P14780 94-707): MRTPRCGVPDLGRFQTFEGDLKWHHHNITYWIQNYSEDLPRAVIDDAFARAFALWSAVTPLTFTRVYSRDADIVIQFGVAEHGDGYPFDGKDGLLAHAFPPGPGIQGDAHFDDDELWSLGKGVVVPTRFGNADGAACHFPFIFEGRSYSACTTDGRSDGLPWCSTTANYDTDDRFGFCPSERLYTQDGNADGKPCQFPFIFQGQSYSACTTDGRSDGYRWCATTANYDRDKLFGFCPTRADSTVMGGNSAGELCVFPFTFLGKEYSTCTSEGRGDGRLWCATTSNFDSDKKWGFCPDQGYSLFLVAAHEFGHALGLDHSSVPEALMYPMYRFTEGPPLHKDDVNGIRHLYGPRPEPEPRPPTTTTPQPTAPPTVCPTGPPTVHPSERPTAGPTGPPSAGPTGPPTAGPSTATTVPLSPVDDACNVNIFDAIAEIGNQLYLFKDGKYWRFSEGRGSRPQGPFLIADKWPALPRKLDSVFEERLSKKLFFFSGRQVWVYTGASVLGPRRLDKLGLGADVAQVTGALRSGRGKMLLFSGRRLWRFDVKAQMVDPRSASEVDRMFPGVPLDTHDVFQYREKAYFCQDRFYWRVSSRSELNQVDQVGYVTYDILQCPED

As a reminder, the IC50 is the concentration at which inhibition is half-maximal. Take `CC#CCOc1ccc(S(=O)(=O)N2Cc3ccccc3N(C(C)=O)CC2C(=O)NO)cc1` (centres unmarked) [Example 1, 1-Acetyl-4-(4-but-2-ynyloxbenzenesulfonyl)-2,3,4,5-tetrahydro-1H-[1,4]benzodiazepine-3-carboxylic acid, hydroxyamide]: the IC50 at MMP-1 is 835 nM; on MMP-9, 228 nM; on MMP-13 (read-out: IC50 (nM) MMP-13) it was 77 nM; at TACE (read-out: IC50 (nM) TACE) it was 16 nM.

With `CC#CCOc1ccc(S(=O)(=O)N2Cc3ccccc3N(C(=O)c3cccs3)CC2C(=O)NO)cc1` (centres unmarked) [Example 2, 4-(4-But-2-ynyloxybenzenesulfonyl)-1-(2-thienylcarbonyl)-2,3,4,5-tetrahydro-1H-[1,4]benzodiazepine-3-carboxylic acid, hydroxyamide], the IC50 was found to be 250 nM at MMP-1, 24 nM against MMP-9, 8 nM on MMP-13 (read-out: IC50 (nM) MMP-13) and 38 nM at TACE (read-out: IC50 (nM) TACE).

On to `CC#CCOc1ccc(S(=O)(=O)N2Cc3ccccc3N(C(=O)c3ccccc3)CC2C(=O)NO)cc1` (centres unmarked) [Example 3, 1-Benzoyl-4-(4-but-2-ynyloxybenzenesulfonyl)-2,3,4,5-tetrahydro-1H-[1,4]-benzodiazepine-3-carboxylic acid, hydroxyamide], for which the IC50 at MMP-13 (read-out: IC50 (nM) MMP-13) was determined as 10 nM.

As usually defined, the melting point is the temperature of the solid-liquid transition. `CC#CCOc1ccc(S(=O)(=O)N2Cc3ccccc3N(C(=O)c3ccco3)CC2C(=O)NO)cc1` (centres unmarked) [Example 57, 4-(4-But-2-ynyloxybenzenesulfonyl)-1-(2-furanylcarbonyl)-2,3,4,5-tetrahydro-1H-[1,4]benzodiazepine-3-carboxylic acid hydroxyamide] registered a melting point of 119 to 120 °C. Also, the 50% inhibitory concentration (IC50) at MMP-1 worked out at 125 nM. This compound showed an IC50 against MMP-9 of 2 nM. Also, 7 nM corresponded to half-maximal inhibition against MMP-13 (IC50). In addition, the IC50 against TACE amounted to 33 nM.

In the case of `CC#CCOc1ccc(S(=O)(=O)N2Cc3ccccc3N(C(=O)C3CC3)CC2C(=O)NO)cc1` (centres unmarked) [Example 58, 1-Cyclopropylcarbonyl-4-(4-but-ynyloxybenzenesulfonyl)-2,3,4,5-tetrahydro-1H-[1,4]benzodiazepine-3-carboxylic acid, hydorxyamide], the IC50 stood at 841 nM on MMP-1, 33 nM against MMP-9 and 29 nM on MMP-13 (read-out: IC50 (nM) MMP-13).

The record behind these values is US6544984B1, “2,3,4,5-tetrahydro-1H-(1,4)benzodiazepine-3-hydroxamic acids” (American Cyanamid Company, priority 1999, dated 2003).
